Reference: patent US20170051014A1, “PEPTIDE HAVING EFFICACY FOR REMEDYING HYPOPIGMENTATION AND INHIBITING ADIPOGENESIS, AND USE OF SAME” (CAREGEN CO., LTD., priority 2014, published 2017)
Bridge positions count the residues as written; N and C are the ends.

What was measured:
[1] = cited from earlier work; for side effects / weight loss effect: background statement on marketed anti-obesity drugs
CREB = test: Melanogenesis signaling molecules by western blot: CREB phosphorylation; assay type: cell-based, mouse; settings: B16F10 cells, observed over time (6 to 24 hours)
Experimental: (§1) Melanocytes (B16F10 cell line) were incubated on 6-well culture plates in an incubator for 24 hours, and were treated with the peptide of the present invention with different concentrations. After the cells were incubated for from 6 to 24 hours, the cells were dissolved, and then the CREB phosphorylation and MITF expression, which are signaling molecules involved in melanogenesis, were observed by western blot assay using antibodies specific thereto. The test was carried out using anti-pCREB antibody (Santa Cruz Biotechnology, USA) and anti-MITF antibody (Santa Cruz Biotechnology, USA).

[2] = test system: Pre-adipocytes (3T3-L1 cell line); test: Measurement of triglyceride amount in differentiating pre-adipocytes; assay type: cell-based; settings: 3T3-L1 cells with differentiation inducing material, incubation for 7 days, absorbance 540 nm
Experimental: Pre-adipocytes (3T3-L1 cell line) were incubated on 24-well plates for 48 hours, and then treated with the peptide of the present invention with different concentrations together with a differentiation composition (0.5 mM IBMX, […], […]), followed by incubation for 7 days. The cells were taken off, and then put in a dissolution buffer (50 mM Tris, 150 mM NaCl, 1% Triton X-100, proteolytic enzyme inhibitor), and kept in ice for 30 minutes. After centrifugation at 14,000 g for 10 minutes, the supernatant containing an oil layer was collected, and a triglyceride reagent was added thereto, followed by reaction in an incubator at 37° C. for 5 minutes. The absorbance was measured at 540 nm to determine the amount of triglycerides.

MITF = test: Melanogenesis signaling molecules by western blot: MITF; assay type: cell-based, mouse; settings: B16F10 cells, observed over time (6 to 24 hours)
Experimental: as §1, with “[…],” for “and then the CREB phosphorylation and MITF expression,”

TRP1 = test: Melanogenic enzyme gene level by RT-PCR: TRP1; assay type: cell-based, mouse; settings: B16F10 cells, 6-hour treatment and 24-hour treatment
Experimental: (§2) Melanocytes (B16F10 cell line) were incubated on 6-well culture plates in an incubator for 24 hours, and were treated with the peptides of the present invention with different concentrations. After the incubation for hours, the cells were taken off, and then, the increases in the expressions of tyrosinase and TRP1, which are enzymes involved in melanogenesis, were observed by RT-PCR using primers specific thereto.
(§3) Target-specific primer sequences used in PCR for enzymes involved in melanogenesis were as follows: Tyrosinase forward primer sequence, 5′-[…]-3′ and tyrosinase reverse primer sequence, 5′-[…]-3′ (annealing temperature, 51° C.); TRP1 forward primer sequence, 5′-[…]-3′ and TRP1 reverse primer sequence, 5′-[…]-3′ (annealing temperature, 60° C.)

tyrosinase [3] = test: Melanogenic enzyme protein level by western blot: tyrosinase; assay type: cell-based, mouse; settings: B16F10 cells, 6-hour treatment and 24-hour treatment
Experimental: Melanocytes (B16F10 cell line) were incubated on 6-well culture plates in an incubator for 24 hours, and were treated with the peptide of the present invention with different concentrations. […] The test was conducted using an anti-tyrosinase antibody (Santa Cruz Biotechnology, USA).

tyrosinase [4] = test: Melanogenic enzyme gene level by RT-PCR: tyrosinase; assay type: cell-based, mouse; settings: B16F10 cells, 6-hour treatment and 24-hour treatment
Experimental: as §2, §3

perilipin = test: Adipogenesis-related gene expression by RT-PCR: perilipin; assay type: cell-based; settings: 3T3-L1 cells with differentiation inducing material, incubation for 7 days
Experimental: (§4) Pre-adipocytes (3T3-L1 cell line) were incubated on 6-well plates for 48 hours, and then treated with the present peptide with different concentrations together with a differentiation composition (0.5 mM IBMX, […], […]), followed by incubation for 7 days. After the incubation, PT-PCR was conducted using primers specific to perilipin and PPARγ, which are genes involved in the adipogenesis mechanism. It was investigated whether the mRNA values of perilipin and PPARγ were inhibited.
as §3, with “adipogenesis” for “melanogenesis”, “perilipin” for “Tyrosinase”, “perilipin” for “tyrosinase”, “60°” for “51°”, “PPARγ” for “TRP1”

PPARγ = test: Adipogenesis-related gene expression by RT-PCR: PPARγ; assay type: cell-based; settings: 3T3-L1 cells with differentiation inducing material, incubation for 7 days
Experimental: as §4
as §3, with “adipogenesis” for “melanogenesis”, “perilipin” for “Tyrosinase”, “perilipin” for “tyrosinase”, “60°” for “51°”, “PPARγ” for “TRP1”

Compound	side effects [1]	weight loss effect [1]	phosphorylation level of CREB (CREB)	level of triglycerides accumulated in cells [2]	MITF protein expression level (MITF)	expression of TRP1 gene (TRP1)	expression of tyrosinase protein (tyrosinase [3])	expression of tyrosinase gene (tyrosinase [4])	gene expression of perilipin (perilipin)	gene expression of PPARγ (PPARγ)	effect of reducing body fat ([1]; background statement on anti-obesity drugs)
CCCCCCCCCCC[C@@H](C[C@@H]1OC(=O)[C@H]1CCCCCC)OC(=O)[C@H](CC(C)C)NC=O [Xenical]	frequent diarrhea	2-3%	–	–	–	–	–	–	–	–	–
CC(C)CC(N(C)C)C1(c2ccc(Cl)cc2)CCC1 (stereo not shown) [Reductil]	cardiovascular diseases, such as stroke and myocardial infarction	5-10%	–	–	–	–	–	–	–	–	–
NH2-Gln-Cys-Arg-Phe-Phe-Arg-Ser-Ala-Cys-COOH (H-QCRFFRSAC-OH; cysteine pairing not given here) [SEQ ID NO: 1]	–	–	increased	reduced in a concentration-dependent manner	increased	increased compared with a control	increased compared with a control	increased compared with a control	reduced compared with a control	reduced compared with a control	–
Cn1c(=O)c2[nH]cnc2n(C)c1=O [aminophylline]	broad side effects throughout the mental nervous system, circulatory system, and digestive system	–	–	–	–	–	–	–	–	–	excellent effect of reducing body fat
NH2-Tyr-Cys-Arg-Phe-Phe-Asn-Ala-Phe-Cys-COOH (H-YCRFFNAFC-OH; disulfide 2-9 (inferred)) [SEQ ID NO: 2]	–	–	increased	reduced in a concentration-dependent manner	increased	increased compared with a control	increased compared with a control	increased compared with a control	reduced compared with a control	reduced compared with a control	–
